Experimental data published in US20160220710A1, “COMPOSITIONS AND METHODS FOR DELIVERING PHARMACEUTICAL AGENTS” (THE REGENTS OF THE UNIVERSITY OF MICHIGAN, priority 2015, published 2016).
“Also recorded” adds a separate entry of the source.

What was measured:
[1] = system: footpad swelling; experiment: Footpad injections alone in naïve mice; format: in vivo; settings: 2 mM, 30 μl
Procedure: (§1) Mice Carrageenan Footpad Edema Model. Carrageenan (C1867, Sigma-Aldrich®, 2% in PBS, 30 μl) was injected into the right footpad while PBS (30 μl) was injected in the left footpad as a negative control. For preliminary testing of CFZ as an anti-inflammatory agent, 8-week orally fed mice (CFZ and control) were used. For testing of CFZ in soluble and microcrystal form, naïve 4-5 week old mice were injected with carrageenan first followed by injection of CFZ-A (2 mM in DMSO, 30 μl), CLDIs (2 mM equivalent in PBS, 30 μl) or CFZ-HCl (2 mM equivalent in PBS, 30 μl) at 48 h post carrageenan injection. For control experiments, CFZ-A, CLDIs and CFZ-HCl were injected into the right footpads of naïve 4-5 week old mice. DMSO was used as a control for CFZ-A in the left footpad whereas PBS was used as a control for CLDIs and CFZ-HCl. Footpads were measured (length—l, width—w, three thicknesses—t1, t2, t3) at various time points using a digital vernier calliper and changes in the swelling based on volume of the foot was calculated as per above.

[2] = system: carrageenan-based footpad-edema model; experiment: Carrageenan footpad edema model, local injection 48 h post carrageenan; format: in vivo, mice; settings: 30 μl, injected 48 h post carrageenan; for subsequent footpad swelling after local injection: 2 mM
Procedure: as §1

Row | Structure (SMILES) | inflammation/swelling after injection alone [1] | subsequent footpad swelling after local injection [2] | footpad swelling inhibition beyond 24 h post therapy ([2]; 2 mM equivalent)
1 | CC(C)N=c1cc2n(-c3ccc(Cl)cc3)c3ccccc3nc-2cc1Nc1ccc(Cl)cc1.Cl [CFZ-A] | measurable inflammatory response initially; also recorded: some swelling | did not lead to a measurable anti-inflammatory response | –
2 | CC(C)N=c1cc2n(-c3ccc(Cl)cc3)c3ccccc3nc-2cc1Nc1ccc(Cl)cc1.Cl [CFZ-HCl] | did not induce any measurable inflammation; also recorded: no signs of swelling | inhibited for 24 h post therapy | sustained for a further 24 h
